Test results taken from the supplement of paper PMC10307832.

Tests used:
Test in all cases: relative viability (nuclei count vs DMSO), 5 days (fraction); higher = more cells survive
BI-2536 + Palbociclib = compound: CC[C@@H]1C(=O)N(C)c2cnc(Nc3ccc(C(=O)NC4CCN(C)CC4)cc3OC)nc2N1C1CCCC1 [BI-2536] + CC(=O)c1c(C)c2cnc(Nc3ccc(N4CCNCC4)cn3)nc2n(C2CCCC2)c1=O [Palbociclib] (partner 0.5 µM)
Summary of the method: (§1)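 Lung cancer cell lines were pin-tool dosed in 1536-well plates on the day after seeding, with either a lone drug or a fixed anchor-drug dose plus five library-drug doses (not always all listed) in √10 steps. Nuclei were counted on 4× images after 5 days. Relative viability is the ratio of treated-well to vehicle-well nuclei counts, with each value a median of duplicate plates.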

[1] = compound: CC1CC(=O)N(C2=CN=C(N=C2N1C3CCCC3)NC4=C(C=C(C=C4)C(=O)NC5CCN(CC5)C)OC)C [NPK76-II-72-1] + C[C@@H](Oc1cc(-c2cnn(C3CCNCC3)c2)cnc1N)c1c(Cl)ccc(F)c1Cl [Crizotinib] (partner 1 µM)
Summary of the method: as §1

[2] = compound: CC1CC(=O)N(C2=CN=C(N=C2N1C3CCCC3)NC4=C(C=C(C=C4)C(=O)NC5CCN(CC5)C)OC)C [NPK76-II-72-1] + C[C@]1(O)C[C@@H](c2nc(-c3ccc4ccc(-c5ccccc5)nc4c3)c3c(N)nccn32)C1 [Linsitinib] (partner 1 µM)
Summary of the method: as §1

BI-2536 + Decitabine = compound: CC[C@@H]1C(=O)N(C)c2cnc(Nc3ccc(C(=O)NC4CCN(C)CC4)cc3OC)nc2N1C1CCCC1 [BI-2536] + Nc1ncn([C@H]2C[C@H](O)[C@@H](CO)O2)c(=O)n1 [Decitabine] (partner 2 µM)
Summary of the method: as §1

| Cell Line | relative viability (BI-2536 + Palbociclib; first compound 0.01 µM) | relative viability (BI-2536 + Palbociclib; first compound 0.03162 µM) | relative viability (BI-2536 + Palbociclib; first compound 0.1 µM) | relative viability (BI-2536 + Palbociclib; first compound 0.3162 µM) | relative viability (BI-2536 + Palbociclib; first compound 1 µM) | relative viability ([1]; first compound 0.01 µM) | relative viability ([1]; first compound 0.03162 µM) | relative viability ([1]; first compound 0.1 µM) | relative viability ([1]; first compound 1 µM) | relative viability ([2]; first compound 0.01 µM) | relative viability ([2]; first compound 0.03162 µM) | relative viability ([2]; first compound 0.1 µM) | relative viability ([2]; first compound 0.3162 µM) | relative viability ([2]; first compound 1 µM) | relative viability (BI-2536 + Decitabine; first compound 0.01 µM) | relative viability (BI-2536 + Decitabine; first compound 0.03162 µM) | relative viability (BI-2536 + Decitabine; first compound 0.1 µM) | relative viability (BI-2536 + Decitabine; first compound 0.3162 µM) | relative viability (BI-2536 + Decitabine; first compound 1 µM) | relative viability ([1]; first compound 0.3162 µM) |
| --- | --- | --- | --- | --- | --- | --- | --- | --- | --- | --- | --- | --- | --- | --- | --- | --- | --- | --- | --- | --- |
| LK-2 | 0.586 | 0.525 | 0.464 | 0.15 | 0.106 | 0.22 | 0.247 | 0.238 | 0.241 | 0.543 | 0.69 | 0.729 | 0.415 | 0.743 | 0.255 | 0.254 | 0.134 | 0.0869 | 0.137 | – |
| LOU-NH91 | 0.477 | 0.51 | 0.472 | 0.331 | 0.317 | 0.735 | 0.735 | 0.693 | 0.764 | 0.941 | 0.932 | 0.984 | 0.681 | 1.04 | 0.816 | 0.685 | 0.66 | 0.343 | 0.383 | 0.635 |
| LU99A | 0.37 | 0.445 | 0.318 | 0.152 | 0.147 | 0.563 | 0.596 | 0.649 | 0.584 | 0.57 | 0.522 | 0.584 | 0.479 | 0.518 | 0.796 | 1.02 | 0.717 | 0.198 | 0.25 | 0.508 |
| LXF-289 | 0.612 | 0.583 | 0.587 | 0.116 | 0.116 | 0.829 | 0.84 | 0.823 | 0.828 | 0.931 | 0.977 | 0.921 | 0.925 | 1 | 0.382 | 0.376 | 0.363 | 0.0762 | 0.1 | 0.801 |
| NCI-H23 | 0.465 | 0.528 | 0.304 | 0.146 | 0.111 | 0.544 | 0.563 | – | 0.528 | 0.546 | 0.701 | – | 0.592 | 0.552 | 0.3 | 0.364 | 0.244 | 0.155 | 0.168 | 0.556 |
| NCI-H322M | 0.503 | 0.436 | 0.462 | 0.447 | 0.395 | 0.968 | 0.944 | 0.868 | 0.983 | 0.853 | 1.1 | 0.805 | 0.961 | 0.976 | 0.69 | 0.64 | 0.649 | 0.462 | 0.451 | 0.873 |
| NCI-H358 | 0.132 | 0.133 | 0.104 | 0.0605 | 0.0928 | 0.606 | 0.604 | 0.604 | 0.651 | 0.742 | 0.773 | 0.854 | 0.412 | 0.784 | 0.204 | 0.187 | 0.0935 | 0.0948 | 0.112 | 0.437 |
| NCI-H441 | 0.201 | 0.203 | 0.183 | 0.132 | 0.122 | 0.928 | 0.692 | 0.505 | 0.699 | 0.479 | 0.696 | 0.492 | 0.265 | 0.65 | 0.244 | 0.247 | 0.153 | 0.149 | 0.149 | 0.7 |
| NCI-H460 | 0.264 | 0.15 | 0.14 | 0.0134 | 0.0152 | 0.945 | 1.03 | 1.06 | 0.898 | 0.721 | 0.787 | 0.842 | 0.762 | 0.895 | 0.596 | 0.486 | 0.114 | 0.0205 | 0.0215 | 0.876 |
| NCI-H520 | 0.225 | 0.216 | 0.182 | 0.178 | 0.178 | 0.713 | 0.914 | 0.716 | 0.751 | 0.753 | 0.83 | 0.804 | 0.922 | 1.07 | 0.538 | 0.393 | 0.226 | 0.195 | 0.209 | 0.75 |
| NCI-H647 | 0.265 | 0.473 | 0.266 | 0.0799 | 0.06 | 1.06 | 1.15 | – | 1.06 | 1.2 | 1.28 | – | 1.07 | 1.14 | 0.391 | 0.301 | 0.103 | 0.0938 | 0.135 | 0.966 |
| NCI-H650 | 0.315 | 0.274 | 0.294 | 0.187 | 0.138 | 0.799 | 0.865 | 0.629 | 0.825 | 0.941 | 1.02 | 0.652 | – | 0.845 | 0.303 | 0.328 | 0.246 | 0.146 | 0.126 | – |
| NCI-H661 | 0.403 | 0.372 | 0.331 | 0.209 | 0.225 | 0.873 | 0.937 | 0.982 | 0.995 | 0.536 | 0.557 | 0.546 | 0.525 | 0.519 | 0.534 | 0.424 | 0.278 | 0.253 | 0.265 | – |
| NCI-H727 | 0.708 | 0.613 | 0.701 | 0.615 | 0.437 | 0.703 | 0.768 | 0.906 | 0.889 | 0.233 | 0.259 | 0.27 | 0.287 | 0.331 | 0.819 | 0.841 | 0.849 | 0.477 | 0.372 | 0.668 |
| NCI-H838 | 0.214 | 0.202 | 0.199 | 0.0979 | 0.0994 | 0.865 | 0.952 | 0.823 | 0.848 | 0.935 | 1.05 | 1.11 | 1.01 | 1.03 | 0.445 | 0.413 | 0.185 | 0.151 | 0.142 | 0.734 |
| NCI-H1355 | 0.415 | 0.405 | 0.385 | 0.171 | 0.158 | 0.858 | 1.06 | 1.13 | 1.16 | 0.844 | 0.837 | 0.809 | 0.792 | 0.848 | 0.357 | 0.369 | 0.342 | 0.148 | 0.154 | 0.841 |
| NCI-H1437 | 0.332 | 0.281 | 0.273 | 0.159 | 0.197 | 0.843 | 0.956 | 0.834 | 0.967 | 0.973 | 1.08 | 0.986 | 0.802 | 1.07 | 0.572 | 0.573 | 0.335 | 0.229 | 0.197 | 0.746 |
| NCI-H1651 | 0.5 | 0.505 | 0.514 | 0.41 | 0.0953 | 0.885 | 0.881 | 0.871 | 0.868 | 0.947 | 0.972 | 1.09 | 0.867 | 1.05 | 0.592 | 0.627 | 0.495 | 0.12 | 0.0817 | 0.881 |
| NCI-H1666 | 0.701 | 0.575 | 0.642 | 0.505 | 0.467 | 0.855 | 1.03 | 0.92 | 1.09 | 0.78 | 0.815 | 0.783 | 0.8 | 0.79 | 0.716 | 0.68 | 0.625 | 0.411 | 0.378 | 0.917 |
| NCI-H1734 | 0.358 | 0.349 | 0.256 | 0.203 | 0.192 | 0.703 | 0.666 | 0.727 | 0.736 | 0.896 | 0.899 | 0.883 | 0.884 | 0.904 | 0.5 | 0.457 | 0.37 | 0.157 | 0.164 | 0.642 |
| NCI-H1755 | 0.473 | 0.477 | 0.424 | 0.377 | 0.385 | 0.866 | 0.864 | 0.838 | 0.939 | 0.972 | 1 | 0.947 | 1.01 | 0.985 | 0.689 | 0.716 | 0.642 | 0.347 | 0.379 | 0.837 |
| NCI-H1792 | 0.72 | 0.706 | 0.76 | 0.349 | 0.215 | 1.05 | 0.817 | 0.968 | 1.07 | 0.615 | 0.629 | 0.52 | 0.492 | 0.591 | 0.587 | 0.589 | 0.386 | 0.0865 | 0.0535 | 1 |
| NCI-H1915 | 0.424 | 0.546 | 0.426 | 0.0999 | 0.0968 | 0.87 | 0.969 | 0.874 | 0.876 | 1.11 | 1.1 | 1.11 | 1.07 | 1.14 | 0.261 | 0.238 | 0.227 | 0.108 | 0.119 | 0.891 |
| NCI-H1944 | 0.304 | 0.329 | 0.308 | 0.173 | 0.15 | 0.985 | 1.12 | 1.1 | 1.22 | 1.16 | 1.09 | 1.21 | 1.06 | 1.28 | 0.454 | 0.444 | 0.399 | 0.168 | 0.192 | 1.01 |
| NCI-H1975 | 0.349 | 0.648 | 0.461 | 0.14 | 0.158 | 0.939 | 0.965 | 0.914 | 0.95 | 0.956 | 0.921 | 0.913 | 1.01 | 1.03 | 0.321 | 0.372 | 0.276 | 0.172 | 0.14 | 0.876 |
| NCI-H1993 | 0.623 | 0.714 | 0.5 | 0.468 | 0.427 | 0.912 | 0.839 | 0.791 | 0.977 | 0.728 | 0.768 | 0.576 | 0.657 | 0.778 | 0.61 | 0.601 | 0.436 | 0.42 | 0.405 | 0.722 |
| NCI-H2009 | 0.195 | 0.171 | 0.119 | 0.142 | 0.0906 | 0.915 | 1.12 | 0.974 | 1.15 | 1.18 | 1.18 | 1.08 | 1.2 | 1.15 | 0.4 | 0.337 | 0.324 | 0.193 | 0.169 | 1.01 |
